For 65 molecules, IC50 results are on record in US8084457B2, “Pharmaceutically active 4,6-disubstituted aminopyrimidine derivatives as modulators of protein kinases” (Lead Discovery Center GmbH, priority 2003, dated 2011).

The target of one assay is T1, CDK9/Cyclin T1 (Homo sapiens, UniProt P50750).
T1 construct: made in house; host or cells: HEK293 cells, recombinant adenovirus
The experiment in a line: Kinase assay using CDK9/Cyclin T1. The assay is classed as biochemical. The conditions noted are these: read-out: CDK9 (activity range). The source says: Cloning of CDK9 and Cyclin T1:
Both cDNA fragments were cloned by PCR into pDONR201 vectors using the gateway recombination system (Invitrogen) according to the manufacturer's recommendations. The fragments were subcloned into a gateway-adapted shuttle vector (pPM7) for production of recombinant adenovirus. All plasmids were verified by restriction digests and sequencing analysis.
Expression and Purification of CDK9/Cyclin T1 Proteins:
Expression and purification was in principle performed as described by Cotten et al. (M. Cotten et al., Nucleic acids research, 2003, 31(28), 128).
Kinase Assay Using CDK9/Cyclin T1:
Kinase assays were performed in principle as described by Cotten et al. (M. Cotten et al., Nucleic acids research, 2003, 31(28), 128).

The next assay addresses T2, CDK2/CyclinA (Homo sapiens, UniProt P24941).
T2 construct: purchased Proqinase
Nature of the assay: Kinase assay determining CDK2/CyclinA activity. It counts as biochemical. The following applies: read-out: CDK2 (activity range). Here is the method:
Kinase Assays Determining CDK2/CyclinA and CDK5/p35 Activity:
Kinase assays were performed as described by the manufacturers recommendations (Proqinase for CDK2/CyclinA and Upsate for CDK5/p35).

T1 sequence (P50750 whole entry): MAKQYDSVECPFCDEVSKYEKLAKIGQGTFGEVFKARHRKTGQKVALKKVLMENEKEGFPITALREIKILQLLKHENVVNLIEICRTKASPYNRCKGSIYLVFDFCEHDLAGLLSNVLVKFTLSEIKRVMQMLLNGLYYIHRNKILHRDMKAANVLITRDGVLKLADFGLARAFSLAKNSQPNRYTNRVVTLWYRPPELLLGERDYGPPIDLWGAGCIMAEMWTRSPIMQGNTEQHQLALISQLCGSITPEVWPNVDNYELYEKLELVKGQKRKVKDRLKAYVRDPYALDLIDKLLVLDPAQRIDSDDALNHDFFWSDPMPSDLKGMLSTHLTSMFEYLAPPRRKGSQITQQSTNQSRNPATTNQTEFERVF
T1 sequence (O60563 whole entry partner): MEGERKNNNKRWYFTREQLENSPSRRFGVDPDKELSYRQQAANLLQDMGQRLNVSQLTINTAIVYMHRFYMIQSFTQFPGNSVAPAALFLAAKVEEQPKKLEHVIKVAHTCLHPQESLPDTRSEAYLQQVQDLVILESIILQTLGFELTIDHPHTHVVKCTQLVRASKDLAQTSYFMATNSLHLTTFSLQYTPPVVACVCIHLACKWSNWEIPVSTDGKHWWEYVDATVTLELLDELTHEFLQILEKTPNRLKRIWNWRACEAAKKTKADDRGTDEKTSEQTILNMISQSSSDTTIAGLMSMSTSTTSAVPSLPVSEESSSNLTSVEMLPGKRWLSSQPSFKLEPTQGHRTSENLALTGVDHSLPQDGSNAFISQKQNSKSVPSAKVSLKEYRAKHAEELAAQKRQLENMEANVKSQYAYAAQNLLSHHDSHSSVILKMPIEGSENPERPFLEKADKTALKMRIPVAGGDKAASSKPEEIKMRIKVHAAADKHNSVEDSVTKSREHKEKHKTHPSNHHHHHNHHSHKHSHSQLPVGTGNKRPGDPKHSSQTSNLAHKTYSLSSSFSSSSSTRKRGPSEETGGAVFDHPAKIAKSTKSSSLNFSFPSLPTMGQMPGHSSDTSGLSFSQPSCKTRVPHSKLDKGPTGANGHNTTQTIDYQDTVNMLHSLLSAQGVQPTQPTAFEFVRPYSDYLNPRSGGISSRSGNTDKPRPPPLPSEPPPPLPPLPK

On to `COc1ccccc1-c1cc(Nc2ccc(NC(=O)c3ccccc3N)cc2)ncn1` [(20)], for which the IC50 at CDK9/Cyclin T1 was in the range of 0.001 to 1 µM; at CDK2/CyclinA it was 1 to 10 µM.
The like results for `O=C(Nc1ccc(Nc2cc(-c3ccccc3OCc3ccccc3)ncn2)cc1)[C@@H]1CCCCN1` [(164)] were, in that order, 0.001 to 1 µM and 0.001 to 1 µM.
Taken in the same sequence, the figures for `COc1ccccc1-c1cc(Nc2ccc(NC(=O)NC3CCCCC3)cc2)ncn1` [(38)] were 0.001 to 1 µM and 1 to 10 µM.
Taken in the same sequence, the figures for `Cc1ccc(S(=O)(=O)Nc2ccc(Nc3cc(-c4cccc(/C=C/C(=O)O)c4)ncn3)cc2)cc1` [(40)] were 10 to 250 µM and 10 to 250 µM.
Consider `Cc1ccc(S(=O)(=O)Nc2ccc(Nc3cc(-c4ccc(CCC(=O)O)cc4)ncn3)cc2)cc1` [(17)], for which the IC50 at CDK9/Cyclin T1 and at CDK2/CyclinA was 10 to 250 µM throughout.
As for `COc1ccccc1-c1cc(Nc2ccc(NC(=O)C(N)c3ccc4ccccc4c3)cc2)ncn1` (centres unmarked) [(146)], the IC50 lay within 0.001 to 1 µM on CDK9/Cyclin T1 and 1 to 10 µM on CDK2/CyclinA.
Turning to `COc1ncc(-c2cc(Nc3ccc(C(=O)N[C@@H]4CCCC[C@H]4N)cc3)ncn2)cn1` (racemic) [(213)], on CDK9/Cyclin T1, the IC50 was in the range of 10 to 250 µM.
`CC(=O)c1ccc(-c2cc(Nc3ccc(NC(=O)[C@@H]4CCCCN4)cc3)ncn2)s1` [(191)]: the IC50 at CDK9/Cyclin T1 was 1 to 10 µM.
With `COc1ccccc1-c1cc(Nc2ccc(C(=O)NC3CCCCC3N)cc2)ncn1` (centres unmarked) [(148)], the figures for the IC50 on CDK9/Cyclin T1 and on CDK2/CyclinA were 0.001 to 1 µM and 1 to 10 µM, respectively.
The like results for `CC(C)(C)C(=O)Nc1ccc(Nc2cc(-c3ccccc3F)ncn2)cc1` [(127)] were, in that order, 10 to 250 µM and 10 to 250 µM.
The like results for `Nc1ccc(C(=O)Nc2ccc(Nc3cc(/C=C/c4ccccc4)ncn3)cc2)cc1` [(32)] were, in that order, 10 to 250 µM and 10 to 250 µM.
Taken in the same sequence, the figures for `COC(=O)CN(c1ccc(Nc2cc(-c3ccc(O)cc3)ncn2)cc1)S(=O)(=O)c1ccc(C)cc1` [(27)] were 1 to 10 µM and 0.001 to 1 µM.
`CC(C)(C)C(=O)Nc1ccc(Nc2cc(-c3ccccc3-c3ccccc3)ncn2)cc1` [(132)]: the IC50 at CDK9/Cyclin T1 lay in the range of 10 to 250 µM.
Take `O=C(NC1CCCC1)c1ccc(-c2cc(Nc3ccc(NC(=O)[C@@H]4CCCCN4)cc3)ncn2)cc1` [(180)]: the IC50 at CDK9/Cyclin T1 was 1 to 10 µM.
As for `COc1ccccc1-c1cc(Nc2ccc(NC(=O)c3ccc4ccccc4c3O)cc2)ncn1` [(139)], the values for the IC50 at CDK9/Cyclin T1 and on CDK2/CyclinA were 0.001 to 1 µM and 1 to 10 µM, respectively.
Take `COc1cccc(-c2cc(Nc3ccc(C)c(NS(C)(=O)=O)c3)ncn2)c1` [(100)]: the IC50 on CDK9/Cyclin T1 and at CDK2/CyclinA was 1 to 10 µM each time.
As to `COc1ccc(-c2cc(Nc3ccc(NC(=O)[C@@H]4CCCCN4)cc3)ncn2)cn1` [(172)], the IC50 on CDK9/Cyclin T1 lay within 1 to 10 µM.
As for `COc1ccccc1-c1cc(Nc2ccc(NC(=O)c3ccc4[nH]cnc4c3)cc2)ncn1` [(138)], the results for the IC50 at CDK9/Cyclin T1 and on CDK2/CyclinA were 1 to 10 µM and 10 to 250 µM, respectively.
The like results for `COc1ccccc1-c1cc(Nc2cccc(NC(=O)C(C)(C)C)c2)ncn1` [(122)] were, in that order, 1 to 10 µM and 1 to 10 µM.
Turning to `NC1CCCCC1NC(=O)c1ccc(Nc2cc(-c3ccc(OCc4ccccc4)cc3)ncn2)cc1` (centres unmarked) [(208)], the IC50 at CDK9/Cyclin T1 lay within 10 to 250 µM.
Turning to `Cc1ccc(S(=O)(=O)Nc2ccc(Nc3cc(-c4ccc(O)cc4)ncn3)cc2)cc1` [(11)], the IC50 on CDK9/Cyclin T1 and at CDK2/CyclinA was 0.001 to 1 µM throughout.
On to `COc1ccccc1-c1cc(Nc2ccc(NC(=O)CC(C)(C)C)cc2)ncn1` [(42)], for which the IC50 on CDK9/Cyclin T1 and on CDK2/CyclinA was 1 to 10 µM in each case.
Consider `COC(=O)c1ccc(Nc2cc(-c3ccccc3OC)ncn2)cc1` [(15)], for which the IC50 on CDK9/Cyclin T1 and at CDK2/CyclinA was 0.001 to 1 µM each time.
Regarding `Cc1ccc(Nc2cc(-c3cncnc3)ncn2)cc1NS(C)(=O)=O` [(110)], the IC50 on CDK9/Cyclin T1 and at CDK2/CyclinA was 1 to 10 µM in each case.
In the case of `CC(C)(C)C(=O)Nc1ccc(Nc2cc(-c3cccnc3)ncn2)cc1` [(73)], the IC50 at CDK2/CyclinA was in the range of 10 to 250 µM.
Consider `COc1ccc(Cl)cc1-c1cc(Nc2ccc(NC(=O)c3ccc(N)cc3)cc2)ncn1` [(39)], for which the IC50 fell in the range of 1 to 10 µM at CDK9/Cyclin T1 and 10 to 250 µM at CDK2/CyclinA.
Taken in the same sequence, the figures for `COc1ccccc1-c1cc(Nc2ccc(NC(=O)NC(C)(C)C)cc2)ncn1` [(113)] were 0.001 to 1 µM and 1 to 10 µM.
The like results for `COc1ccccc1-c1cc(Nc2ccc(NS(=O)(=O)c3ccc(C)cc3)cc2)ncn1` [(5)] were, in that order, 0.001 to 1 µM and 0.001 to 1 µM.
Consider `COc1ccccc1-c1cc(Nc2ccc(NC(=O)c3nc4ccccc4s3)cc2)ncn1` [(84)], for which the IC50 on CDK9/Cyclin T1 is 1 to 10 µM; at CDK2/CyclinA, 10 to 250 µM.
For `COC(=O)c1cccc(-c2cc(Nc3ccc(C(=O)N[C@@H]4CCCC[C@H]4N)cc3)ncn2)c1` (racemic) [(201)], the IC50 on CDK9/Cyclin T1 fell in the range of 1 to 10 µM.
For the molecule `COc1ccccc1-c1cc(N(C)c2ccc(NS(=O)(=O)c3ccc(C)cc3)cc2)ncn1` [(96)], the IC50 at CDK9/Cyclin T1 and at CDK2/CyclinA was 1 to 10 µM each time.
Take `COc1ccccc1-c1cc(Nc2ccc(NS(=O)(=O)c3ccc(C(C)C)cc3)cc2)ncn1` [(23)]: the IC50 at CDK9/Cyclin T1 fell in the range of 0.001 to 1 µM; on CDK2/CyclinA, 1 to 10 µM.
As for `CC(C)(C)C(=O)Nc1ccc(Nc2cc(Cl)ncn2)cc1` [(72)], on CDK2/CyclinA, the IC50 lay in the range of 10 to 250 µM.
As for `Cc1ccc(Nc2cc(-c3cccc(N)c3)ncn2)cc1NS(=O)(=O)c1cccc2cccnc12` [(142)], the IC50 on CDK9/Cyclin T1 lay within 0.001 to 1 µM; on CDK2/CyclinA, 10 to 250 µM.
For `O=C(Nc1ccc(Nc2cc(-c3ccc(Oc4ccccc4)cc3)ncn2)cc1)[C@@H]1CCCCN1` [(174)], the figures for the IC50 at CDK9/Cyclin T1 and on CDK2/CyclinA were 0.001 to 1 µM and 1 to 10 µM, respectively.
The like results for `COc1ccccc1-c1cc(Nc2ccc(NC(=O)C(C)(C)C)cc2)ncn1` [(19)] were, in that order, 0.001 to 1 µM and 1 to 10 µM.
For `COCc1ccccc1-c1cc(Nc2ccc(C(=O)NC3CCCCC3N)cc2)ncn1` (centres unmarked) [(210)], the IC50 on CDK9/Cyclin T1 was 1 to 10 µM.
The same measure, in the same setting: then `CC(=O)Nc1ccc(-c2cc(Nc3ccc(NC(=O)[C@@H]4CCCCN4)cc3)ncn2)cc1` [(177)], with 1 to 10 µM; and `O=C(Nc1ccc(Nc2cc(-c3cccc(CO)c3)ncn2)cc1)[C@@H]1CCCCN1` [(193)], with 1 to 10 µM.
The same measure, in the same setting: then `Cc1ccc(Nc2cc(-c3ccc(CO)cc3)ncn2)cc1NS(C)(=O)=O` [(175)], with 1 to 10 µM.
Still for that read-out and setting: as for `CC(=O)c1cccc(-c2cc(Nc3ccc(NC(=O)[C@@H]4CCCCN4)cc3)ncn2)c1` [(179)], the figure is 10 to 250 µM.
As to `COc1ccc(-c2ncnc(Nc3ccc(NC(=O)c4ccc(N)cc4)cc3)c2C)cc1` [(200)], the IC50 at CDK9/Cyclin T1 is 10 to 250 µM.
As to `COCc1ccccc1-c1cc(Nc2ccc(C)c(NS(C)(=O)=O)c2)ncn1` [(197)], the IC50 on CDK9/Cyclin T1 lay within 1 to 10 µM.
On the same count and under the same terms, then `COc1ccc(-c2cc(Nc3ccc(N)cc3)nc(C)n2)cc1` [(205)], with 10 to 250 µM; and `CS(=O)(=O)Nc1cccc(-c2cc(Nc3ccc(NC(=O)[C@@H]4CCCCN4)cc3)ncn2)c1` [(178)], with 0.001 to 1 µM.
Same read-out and setting: then `O=C(Nc1ccc(Nc2cc(-c3ccc(OCc4ccccc4)cc3)ncn2)cc1)[C@@H]1CCCCN1` [(173)], with 10 to 250 µM; and `CC(C)(C)C(=O)Nc1ccc(Nc2cc(-c3cccc(C(=O)O)c3)ncn2)cc1` [(75)], with 10 to 250 µM; and `N[C@@H]1CCCC[C@H]1NC(=O)c1ccc(Nc2cc(-c3cccc(O)c3)ncn2)cc1` (racemic) [(194)], with 1 to 10 µM.
Still for that read-out and setting: as for `CCCS(=O)(=O)Nc1ccc(Nc2ncnc(-c3ccccc3OC)c2C)cc1` [(160)], the figure is 10 to 250 µM.
`CN1CCN(c2cc(Nc3ccc(NC(=O)C(C)(C)C)cc3)ncn2)CC1` [(78)]: on CDK2/CyclinA, the IC50 is 10 to 250 µM.
For the molecule `CN(C)c1cccc(-c2cc(Nc3ccc(NC(=O)[C@@H]4CCCCN4)cc3)ncn2)c1` [(169)], on CDK9/Cyclin T1, the IC50 was 1 to 10 µM.
On the same count and under the same terms, as for `Cc1ccc(Nc2cc(-c3ccccc3CO)ncn2)cc1NS(C)(=O)=O` [(166)], the figure is 1 to 10 µM; as for `O=C(Nc1ccc(Nc2cc(-c3ccccc3CO)ncn2)cc1)[C@@H]1CCCCN1` [(170)], 1 to 10 µM; as for `CN(C)Cc1cccc(-c2cc(Nc3ccc(NC(=O)[C@@H]4CCCCN4)cc3)ncn2)c1` [(211)], 1 to 10 µM.
Same read-out and setting: then `N#Cc1cccc(-c2cc(Nc3ccc(C(=O)NC4CCCCC4N)cc3)ncn2)c1` (centres unmarked) [(209)], with 1 to 10 µM; and `COc1ccccc1-c1ncnc(Nc2ccc(NC(=O)c3ccc(N)cc3)cc2)c1C` [(149)], with 10 to 250 µM; and `COc1ccc(-c2cc(Nc3ccc(NC(=O)[C@@H]4CCCCN4)cc3)ncn2)cc1` [(167)], with 1 to 10 µM.
On to `COc1ccccc1-c1cc(Nc2ccc(NC(=O)c3cc4ccccc4oc3=O)cc2)ncn1` [(129)], for which, at CDK9/Cyclin T1, the IC50 was in the range of 10 to 250 µM.
Still for that read-out and setting: as for `NC1CCCCC1NC(=O)c1ccc(Nc2cc(-c3cnc4ccccc4c3)ncn2)cc1` (centres unmarked) [(212)], the figure is 10 to 250 µM.
Still for that read-out and setting: as for `CC(=O)Nc1cccc(-c2cc(Nc3ccc(C(=O)NC4CCCCC4N)cc3)ncn2)c1` (centres unmarked) [(207)], the figure is 1 to 10 µM.
On to `COc1ccccc1-c1cc(Nc2ccc(NC(=O)c3n[nH]c4ccccc34)cc2)ncn1` [(141)], for which, on CDK9/Cyclin T1, the IC50 fell in the range of 1 to 10 µM.
On the same count and under the same terms, as for `COCc1cccc(-c2cc(Nc3ccc(NC(=O)[C@@H]4CCCCN4)cc3)ncn2)c1` [(203)], the figure is 1 to 10 µM.
Regarding `COc1ccccc1-c1cc(Nc2ccc(NC(=O)Nc3ccc4c(c3)OCO4)cc2)ncn1` [(111)], the IC50 at CDK2/CyclinA is 10 to 250 µM.
Take `Nc1cccc(-c2cc(Nc3ccc(C(=O)NC4CCCCC4N)cc3)ncn2)c1` (centres unmarked) [(206)]: the IC50 at CDK9/Cyclin T1 lay within 1 to 10 µM.
`COc1ccccc1-c1cc(Nc2ccc(N)cc2)nc(C)n1` [(204)]: the IC50 on CDK9/Cyclin T1 was 10 to 250 µM.
